Measured values reported in patent publication US7432398B2, “Inorganic acid salts of sibutramine” (CJ Corporation, priority 2005, dated 2008).
Where a name gives a salt, the structure may show the parent alone.

Key:
[1] = Evaluation of hygroscopicity: water content (K.F.) after exposure to humid conditions; format: physicochemical; conditions: for change in water content under humid conditions: 75% and 90% RH, up to 1 week
Method: Then, the water content (K.F. water %) of the samples was measured.

[2] = Stability on stringent 60° C. heat treatment (HPLC content); conditions: for chemical stability at high temperature: 60° C. heat treatment
Method: The inorganic acid salts of sibutramine, prepared in Examples 1, 2 and 3, and sibutramine hydrochloride monohydrate were exposed to a stringent 60° C. heat treatment.
HPLC was performed under the following conditions. Wavelength of UV detection: 225 nm
Column: octadecyl silica gel, C18 (4.6×150 mm, 5 μm)

[3] = Light stability test, fluorescent light at 25° C., ICH chamber (HPLC content); format: physicochemical
Method: A light stability test was performed as follows.

[4] = Evaluation of solubility in solutions having various pH values
Text: In Table 8, the solubility is expressed as milligrams (mg) of sibutramine dissolved per milliliter (ml) of solution.

[5] = 75% relative humidity, 25 °C, 1 week
[6] = 75% relative humidity, 25 °C, 3 days
[7] = 90% relative humidity, 25 °C, 1 week
[8] = 90% relative humidity, 25 °C, 3 days
[9] = fluorescent light, 25° C., 1 wk
[10] = fluorescent light, 25° C., 2 wks
[11] = fluorescent light, 25° C., 4 wks

Compound	change in water content under humid conditions [1]	water content (K.F. water %) [1, 5] [%]	water content (K.F. water %) [1, 6] [%]	water content (K.F. water %) [1, 7] [%]	water content (K.F. water %) [1, 8] [%]	water content (K.F. water %) ([1]; Initial) [%]	chemical stability at high temperature [2]	content (HPLC) on 60° C. heat treatment ([2]; 60° C., 1 wk)	content (HPLC) on 60° C. heat treatment ([2]; 60° C., 2 wks)	content (HPLC) on 60° C. heat treatment ([2]; 60° C., 4 wks)	content (HPLC) on 60° C. heat treatment ([2]; Initial)	content (HPLC) on exposure to fluorescent light ([3]; Initial)	content (HPLC) on exposure to fluorescent light [3, 9]	content (HPLC) on exposure to fluorescent light [3, 10]	content (HPLC) on exposure to fluorescent light [3, 11]	other results
sibutramine bromate	almost no change in water content	0.09	0.09	0.08	0.08	0.09	good chemical stability	0.999	1.000	0.999	1.000	1.000	1.000	0.999	0.999	solubility (mg of sibutramine dissolved per ml of solution) ([4]; DW (distilled water), dissolved at 37° C.): 12.78 mg/mL; solubility (mg of sibutramine dissolved per ml of solution) ([4]; pH 1.2, dissolved at 37° C.): 12.43 mg/mL; solubility (mg of sibutramine dissolved per ml of solution) ([4]; pH 4.0, dissolved at 37° C.): 3.64 mg/mL; solubility (mg of sibutramine dissolved per ml of solution) ([4]; pH 5.3, dissolved at 37° C.): 8.96 mg/mL; solubility (mg of sibutramine dissolved per ml of solution) ([4]; pH 6.8, dissolved at 37° C.): 11.08 mg/mL; solubility (mg of sibutramine dissolved per ml of solution) ([4]; pH 7.4, dissolved at 37° C.): 12.41 mg/mL
CC(C)CC(N(C)C)C1(c2ccc(Cl)cc2)CCC1 (stereo not shown) [Sibutramine HCl hydrate, sibutramine hydrochloride monohydrate, reference compound]	almost no change in water content	5.5	5.49	5.49	5.5	5.5	good chemical stability	1.000	0.999	0.999	1.000	1.000	1.000	0.999	0.999	light stability ([3]; fluorescent light, 25° C., content by HPLC): good light stability
sibutramine phosphate monohydrate [Sibutramine phosphate hydrate]	almost no change in water content	4.25	4.24	4.26	4.25	4.25	good chemical stability	1.000	0.999	1.000	1.000	1.000	1.000	0.999	0.999	
sibutramine hydrogen sulfate	almost no change in water content	0.01	0.02	0.03	0.03	0.02	good chemical stability	1.000	0.999	0.999	1.000	1.000	1.000	1.000	0.999	
